Experimental data published in patent US12415939B2, “Nano-adhesive and surface primer compound and use thereof” (The Regents of the University of California, priority 2015, dated 2025).

Tests used:
[1] = AFM adhesion force runs with silica probe on Z-Cat-C10 coated silicon wafer; assay type: physicochemical
Procedure: AFM force runs were measured with and without Z-Cat-C10 on silicon wafer and copper plate, respectively, vs. silicon dioxide probe. Underwater force run was conducted for the surface prepared subsequently after spreading the 5 mM Z-Cat-C10, waiting for 2 min, rinsing thoroughly with degassed DI water thoroughly for 3 times. Dry force run was performed after ˜5 min dry of the surface prepared as for the underwater force run. […] Cantilever spring constant (K) for #=10 μm silica tip on silicon wafer and copper plate with Z-Cat-C10, was 0.1 N m^−1.
The measured adhesion, Fa, force (minimum of the potential well of the F vs. D curves obtained from AFM measurements) is related to the adhesion energy per unit area by Wa=Fa/2πR for rigid surfaces with weak adhesive interactions, and by Wa=Fa/1.5πR (used in this study) for soft deformable surfaces with strong adhesion or cohesion. Since copper surface (RMS˜2 nm) is rougher than silicon wafer (RMS<1 nm), the Wa on copper surface was comparatively weaker than the Wa of silicon wafer. Hydroxide/oxide on copper surface also weakens the adhesion to copper plate compared to just oxide on silicon wafer (see FIGS. 18-23). […]
The adhesion/cohesion energy of the synthetic zwitterionic molecules was investigated in SFA (SurForce LLC, Santa Barbara, CA). Two molecularly smooth freshly cleaved back silvered mica surfaces glued on cylindrical silica discs of radius of curvature, R˜2 cm, were mounted in the SFA and 50 μL of a colloidal dispersion of the synthetic molecules in DI water were injected between the surfaces at different concentrations (C=0.5-5 mM) and the forces between the thin films of the molecules were measured by Multiple Beam Interferometry (MBI). The adhesion forces between Z-Cat-C10 molecules on various surfaces, e.g., silica and copper, were also measured by AFM (MFP-3D, Asylum research, Goleta, CA) in DI water and ambient conditions, respectively, at room temperature. […] Cantilever spring constants were measured for each force run. […]

[2] = Standard three point bending peel test; conditions: ambient dry, n=4
Procedure: Samples were prepared as described above in “Lap Joint Bending Peel Test” underwater, i.e., aqueous periodate solution, then dried 12 h and 24 h, respectively, in ambient condition. In this standard three point bending peel test, the cross section area was 2.54 cm×1.27 cm.
The standard three point bending peel test (FIG. 24F) was conducted with a Bionix 200 tensile tester (MTS Systems) in ambient conditions. All tests were conducted with a test speed of 5 mm min-1.

CN(C)CCOP(=O)(O)OCCCc1ccc(O)c(O)c1 [Z-Cat-C10]
dry Wad relative to catecholic polysiloxane ([1]; SiO2 and SiO2 surfaces): 50 fold | adhesion Wad after air-drying ([1]; air-dried ~5 min, SiO2 and SiO2 surfaces): ~175 mJ m^−2 | wet work of adhesion Wad ([1]; underwater, SiO2 and SiO2 interface, 5 mM coating): ~7.7 mJ m^−2 | three point bending peel strength [2]: 20.5 N cm^−1
